# In paper PMC7802074, “Azanitrile Inhibitors of the SmCB1 Protease Target Are Lethal to Schistosoma mansoni: Structural and Mechanistic Insights into Chemotype Reactivity” (ACS Infectious Diseases, 2020):
# Values joined by “and” are separate entries in the source; they are usually repeats but may differ in a detail not shown here. Equal entries are not always repeated. Where two headings read alike, the source gives them in different places.
# How the values were obtained:
# [1] = test system: S. mansoni newly transformed schistosomula (NTS); test: Schistosome phenotypic assay; assay type: cell-based, Schistosoma mansoni; details: for Severity score Day 1 / Severity score Day 2 / Severity score Day 3 / Severity score Day 4: 10 μM inhibitor, scale 0 (no effect) to 4 (severe); for Severity score Day 1: 24 h; for Severity score Day 2: 48 h
# Description: Newly transformed schistosomula (NTS) of S. mansoni were prepared by mechanically transforming infective larvae (cercariae) as described previously.[70],[71] NTS (200–300 parasites) were incubated in 200 μL of Basch Medium 169 containing 5% FBS, 100 U mL^–1 penicillin, and 100 μg mL^–1 streptomycin at 5% CO2 and 37 °C.[70],[72],[73] Inhibitors were added at the final concentration of 10 μM,[20],[69] and changes in phenotypes were observed every 24 h for up to 4 days. A constrained nomenclature of “descriptors” is used to record the multiple and dynamic changes in movement, shape, and translucence of which the schistosome parasite is capable (Table S3).[70] These descriptors are then converted into an ordinal “severity score” system from 0 (no effect) to 4 (maximum effect), which allows for the relative comparison of compound effects, as described.[74],[75] Images of NTS were captured using a Zeiss Axiovert 40 C inverted microscope (10× objective) and a Zeiss AxioCam MRc digital camera controlled by AxioVision 40 (v. 4.8.1.0) software.
# recombinant SmCB1 = recombinant SmCB1 (Schistosoma mansoni, UniProt Q8MNY2, T185A/T300A); test: SmCB1 kinetic inhibition assay with fluorogenic substrate Cbz-Phe-Arg-AMC; assay type: biochemical; details: for Ki / SmCB1 inhibition k2nd (second-order rate constant): substrate Cbz-Phe-Arg-AMC; for binding kinetics (shape of progress curves): Figure 2; for SmCB1 inhibition k2nd (second-order rate constant): slow-binding azadipeptide nitriles
# Description: Inhibition measurements were performed in triplicates in 96-well microplates (100 μL assay volume) at 37 °C. SmCB1 (20–40 pM) was added to a mixture of the fluorogenic substrate Cbz-Phe-Arg-AMC (20 μM) and an inhibitor (0–100 μM) in 0.1 M sodium acetate, pH 5.5, containing 2.5 mM dithiothreitol and 0.1% PEG 6000. The substrate hydrolysis was monitored in an Infinite M1000 microplate reader (Tecan, Männedorf, Switzerland) at excitation and emission wavelengths of 360 and 465 nm, respectively, for up to 15 and 60 min for fast- and slow-binding inhibitors, respectively. […] For slow-binding inhibitors, an observed first-order rate constant kobs was calculated at each inhibitor concentration by fitting the progress curve to the equation P = vst + (vi – vs)(1 – […])/kobs + d, where P is the product formation, vs is the steady-state velocity, t is the reaction time, vi is the initial velocity, and d is the offset. The inhibition constant Ki′ was determined by nonlinear regression using the equation vs/v0 = 1/(1 + [I]/Ki′). The true inhibition constants Ki were then calculated using the equation Ki = Ki′/(1 + [S]/Km), where [S] is the substrate concentration and Km is the Michaelis constant. The apparent second-order rate constant k2nd′ was determined by fitting to the linear equation kobs = k2nd′[I] + koff, where koff is the first-order rate constants for the dissociation of the enzyme–inhibitor complex and the true constant k2nd was calculated by the correction k2nd = k2nd′(1 + [S]/Km). […] In none of the assay systems did the final concentration of DMSO exceed 1.5%.
# [2] = SmCB1 inhibition Ki, Table S2, carbadipeptide nitriles
# [3] = SmCB1 inhibition Ki, kinetic activity assay, pH 5.5, 37 °C
# [4] = Table S2, carbadipeptide nitriles, read-out: SmCB1 inhibition Ki
# recombinant SmCB1, sequence (Q8MNY2 87-340 T185A/T300A): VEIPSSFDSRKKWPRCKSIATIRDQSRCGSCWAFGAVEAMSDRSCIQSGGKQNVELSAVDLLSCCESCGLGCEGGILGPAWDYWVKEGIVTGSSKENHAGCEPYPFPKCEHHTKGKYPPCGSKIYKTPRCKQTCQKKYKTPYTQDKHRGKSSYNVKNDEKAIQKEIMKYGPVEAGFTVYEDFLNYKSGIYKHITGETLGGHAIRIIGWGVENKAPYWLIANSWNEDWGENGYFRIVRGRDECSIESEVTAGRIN
smiles,measurement,setting,value
CN(C#N)N(C)C(=O)CNC(=O)OCc1ccccc1 [Compound 1a],Severity score Day 1,[1],0 and 0/0
same,Severity score Day 2,[1],0 and 0/0
same,Severity score Day 3,[1],0
same,Severity score Day 4,[1],0
same,phenotype severity against NTS,"[1]; 10 μM, up to 4 days",ineffective
N#CCNC(=O)CNC(=O)OCc1ccccc1 [Compound 1c],Severity score Day 1,[1],0
same,Severity score Day 2,[1],0
same,Severity score Day 3,[1],0
same,Severity score Day 4,[1],0
same,Ki,recombinant SmCB1; [2],> 10 µM
same,Ki,recombinant SmCB1; [3],> 100 µM
CN(C#N)N(C)C(=O)[C@H](Cc1ccccc1)NC(=O)OCc1ccccc1 [Compound 2a],Descriptors Day 1 (phenotypic changes),[1]; 10 µM inhibitor,Deg
same,Descriptors Day 2 (phenotypic changes),[1]; 10 µM inhibitor,Deg
same,Severity score Day 1,[1],4 and 4/4
same,Severity score Day 2,[1],4 and 4/4
same,Severity score Day 3,[1],4
same,Severity score Day 4,[1],4
same,koff,recombinant SmCB1,0.0003 ± 2e-05 s⁻¹
same,binding kinetics (shape of progress curves),recombinant SmCB1,slow-binding
same,Ki,recombinant SmCB1; [3],0.0194 ± 0.0014 µM
same,SmCB1 inhibition k2nd (second-order rate constant),recombinant SmCB1,15.7 ± 1.1 10^3 M^-1 s^-1
N#CCNC(=O)[C@H](Cc1ccccc1)NC(=O)OCc1ccccc1 [Compound 2c],Severity score Day 1,[1],0
same,Severity score Day 2,[1],0
same,Severity score Day 3,[1],0
same,Severity score Day 4,[1],0
same,binding kinetics (shape of progress curves),recombinant SmCB1,fast-binding
same,Ki,recombinant SmCB1; [2],2.92 ± 0.32 µM
same,Ki,recombinant SmCB1; [3],2.92 ± 0.32 µM
"CC(C)C[C@H](NC(=O)NCc1ccccc1)C(=O)NCC#N [Compound 3c, (S)-2-(3-Benzylureido)-N-(cyanomethyl)-4-methylpentanamide]",Severity score Day 1,[1],0
same,Severity score Day 2,[1],0
same,Severity score Day 3,[1],0
same,Severity score Day 4,[1],0
same,Ki,recombinant SmCB1; [2],> 10 µM
same,Ki,recombinant SmCB1; [3],> 100 µM
CC(C)C[C@H](NC(=O)Nc1ccc(-c2noc(-c3cccs3)n2)cc1)C(=O)N(C)N(C)C#N [Compound 4a],Descriptors Day 1 (phenotypic changes),[1]; 10 µM inhibitor,"R, Unc, Dark"
same,Descriptors Day 2 (phenotypic changes),[1]; 10 µM inhibitor,Deg
same,Severity score Day 1,[1],3
same,Severity score Day 2,[1],4
same,Severity score Day 3,[1],4
same,Severity score Day 4,[1],4
same,Ki,recombinant SmCB1; [3],0.0367 ± 0.0026 µM
same,SmCB1 inhibition k2nd (second-order rate constant),recombinant SmCB1,13.9 ± 2.9 10^3 M^-1 s^-1
CC(C)C[C@H](NC(=O)Nc1ccc(-c2noc(-c3cccs3)n2)cc1)C(=O)NCC#N [Compound 4c],Descriptors Day 1 (phenotypic changes),[1]; 10 µM inhibitor,"R, S"
same,Descriptors Day 2 (phenotypic changes),[1]; 10 µM inhibitor,R
same,Descriptors Day 4 (phenotypic changes),[1]; 10 µM inhibitor,"R, S"
same,Severity score Day 1,[1],2
same,Severity score Day 2,[1],1
same,Severity score Day 3,[1],0
same,Severity score Day 4,[1],2
same,Ki,recombinant SmCB1; [2],6.62 ± 0.91 µM
same,Ki,recombinant SmCB1; [3],6.62 ± 0.91 µM
CC(C)C[C@H](NC(=O)c1ccc(-c2noc(-c3cccs3)n2)cc1)C(=O)NCC#N [Compound 5c],Descriptors Day 2 (phenotypic changes),[1]; 10 µM inhibitor,R
same,Descriptors Day 3 (phenotypic changes),[1]; 10 µM inhibitor,"R, Dark"
same,Descriptors Day 4 (phenotypic changes),[1]; 10 µM inhibitor,Deg
same,Severity score Day 1,[1],0
same,Severity score Day 2,[1],1
same,Severity score Day 3,[1],2
same,Severity score Day 4,[1],4
same,Ki,recombinant SmCB1; [2],1.22 ± 0.2 µM
same,Ki,recombinant SmCB1; [3],1.21 ± 0.205 µM
CC(C)C[C@@H](C(=O)N(C)N(C)C#N)N(C)C(=O)c1ccc(-c2noc(-c3cccs3)n2)cc1 [Compound 6a],Descriptors Day 1 (phenotypic changes),[1]; 10 µM inhibitor,Deg
same,Descriptors Day 2 (phenotypic changes),[1]; 10 µM inhibitor,Deg
same,Severity score Day 1,[1],4 and 4/4
same,Severity score Day 2,[1],4 and 4/4
same,Severity score Day 3,[1],4
same,Severity score Day 4,[1],4
same,Ki,recombinant SmCB1; [3],1.54 ± 0.25 µM
same,decrease in potency versus 5a,recombinant SmCB1; ratio of SmCB1 Ki values,300 fold
same,SmCB1 inhibition k2nd (second-order rate constant),recombinant SmCB1,0.5 ±0.1 10^3 M^-1 s^-1
CC(C)(C)OC(=O)NCC(=O)NCC#N [Gü807],Ki,recombinant SmCB1; [4],> 10 µM
CC(C)(C)OC(=O)N[C@@H](Cc1ccccc1)C(=O)NCC#N [Gü809],Ki,recombinant SmCB1; [4],> 10 µM
CC(C)C[C@H](NC(=O)OC(C)(C)C)C(=O)NCC#N [Gü914],Ki,recombinant SmCB1; [4],> 10 µM
CC(C)(C)OC(=O)N[C@@H](Cc1ccc(O)cc1)C(=O)NCC#N [Gü915],Ki,recombinant SmCB1; [4],> 10 µM
CC(C)(C)OC(=O)N[C@@H](Cc1c[nH]c2ccccc12)C(=O)NCC#N [Gü916],Ki,recombinant SmCB1; [4],> 10 µM
CC(C)C[C@H](NC(=O)OCc1ccccc1)C(=O)NCC#N [Gü928],Ki,recombinant SmCB1; [4],> 10 µM
CC(C)(C)OC(=O)N[C@@H](CC1CCCCC1)C(=O)NCC#N [Gü929],Ki,recombinant SmCB1; [4],> 10 µM
CC(C)(C)OC(=O)N[C@@H](COCc1ccccc1)C(=O)NCC#N [Gü930],Ki,recombinant SmCB1; [4],> 10 µM
CC(C)[C@H](NC(=O)OC(C)(C)C)C(=O)NCC#N [Gü931],Ki,recombinant SmCB1; [4],> 10 µM
CCC(C)C(NC(=O)OC(C)(C)C)C(=O)NCC#N (centres unmarked) [Gü932],Ki,recombinant SmCB1; [4],> 10 µM
C[C@H](NC(=O)OC(C)(C)C)C(=O)NCC#N [Gü933],Ki,recombinant SmCB1; [4],> 10 µM
CSCC[C@H](NC(=O)OC(C)(C)C)C(=O)NCC#N [Gü935],Ki,recombinant SmCB1; [4],> 10 µM
CC(C)(C)OC(=O)N1CCC[C@H]1C(=O)NCC#N [Gü936],Ki,recombinant SmCB1; [4],> 10 µM
CSCC[C@@H](C#N)NC(=O)[C@H](Cc1ccccc1)NC(=O)OC(C)(C)C [Gü968],Ki,recombinant SmCB1; [4],> 10 µM
CC(C)(C)OC(=O)N[C@@H](Cc1ccccc1)C(=O)N[C@H](C#N)CC#N [Gü970],Ki,recombinant SmCB1; [4],> 10 µM
CC(C)(C)OC(=O)N[C@@H](Cc1ccc(Br)cc1)C(=O)NCC#N [Gü1121],Ki,recombinant SmCB1; [4],> 10 µM
CC(C)(C)OC(=O)N[C@@H](Cc1cccc(Br)c1)C(=O)NCC#N [Gü1122],Ki,recombinant SmCB1; [4],> 10 µM
CC(C)(C)OC(=O)N[C@@H](Cc1cccc2ccccc12)C(=O)NCC#N [Gü1127],Ki,recombinant SmCB1; [4],> 10 µM
CC(C)(C)OC(=O)N[C@@H](CCc1ccccc1)C(=O)NCC#N [Gü1129],Ki,recombinant SmCB1; [4],> 10 µM
CC(C)(C)OC(=O)N[C@H](C(=O)NCC#N)c1ccccc1 [Gü1130],Ki,recombinant SmCB1; [4],> 10 µM
CCC[C@H](NC(=O)OC(C)(C)C)C(=O)NCC#N [Gü1131],Ki,recombinant SmCB1; [4],> 10 µM
CC[C@H](NC(=O)OC(C)(C)C)C(=O)NCC#N [Gü1132],Ki,recombinant SmCB1; [4],> 10 µM
CC(C)(C)OC(=O)N[C@H](Cc1ccccc1)C(=O)NCC#N [Gü1133],Ki,recombinant SmCB1; [4],> 10 µM
CC(=O)N[C@@H](Cc1ccccc1)C(=O)NCC#N [Gü1134],Ki,recombinant SmCB1; [4],> 10 µM
N#CCNC(=O)[C@H](Cc1ccccc1)NC(=O)c1ccccc1 [Gü1135],Ki,recombinant SmCB1; [4],> 10 µM
CC(C)(C)OC(=O)N[C@@H](CC1CC1)C(=O)NCC#N [Gü1228],Ki,recombinant SmCB1; [4],> 10 µM
CC(C)(C)OC(=O)N[C@@H](Cc1ccsc1)C(=O)NCC#N [Gü1232],Ki,recombinant SmCB1; [4],> 10 µM
CC(C)(C)OC(=O)N[C@@H](Cc1ccc(F)cc1)C(=O)NCC#N [Gü1237],Ki,recombinant SmCB1; [4],> 10 µM
CC(C)(C)OC(=O)N[C@@H](Cc1cccc(F)c1)C(=O)NCC#N [Gü1239],Ki,recombinant SmCB1; [4],> 10 µM
CC(C)(C)OC(=O)N[C@@H](Cc1ccccc1F)C(=O)NCC#N [Gü1242],Ki,recombinant SmCB1; [4],> 10 µM
CC(C)(C)OC(=O)N[C@@H](Cc1csc2ccccc12)C(=O)NCC#N [Gü1246],Ki,recombinant SmCB1; [4],> 10 µM
N#CCNC(=O)C1(NC(=O)OCc2ccccc2)CCCCC1 [Gü2195],Ki,recombinant SmCB1; [4],> 10 µM
